Measurements reported in patent US6004967A, “Psoriasis treatment with quinazoline compounds” (priority 1997, dated 1999).

Tests used:
[1] = tested on: NIH 3T3 C7 cells engineered to express EGF-R (3T3-EGFR); experiment: 3T3 cell growth assay, EGF-R C7 cells (3T3-EGFR); format: cell-based; conditions: Mus musculus, NIH3T3, 96 h, read-out: 3T3-EGFR IC50
Method: The efficacy of the above identified compounds in inhibiting or reducing EGF-R stimulated proliferation is measured by the 3T3 cell growth assay. The 3T3 growth assay was carried out as follows:
EGF-RC7 (NIH 3T3 C7 cells engineered to express EGF-R) and NIH 3T3C7 cells (as the control) were used for this assay. NIH3T3C7 cells were seeded at 2500 cells/well, […] in 10% CS+2 mM Glutamine/DMEM, in a 96 well plate; EGF-RC7 cells were seeded at 6000 cells/well, 100 μl/well in 2% FBS+2 mM Glutamine/DMEM, in a 96 well plate. Cells were incubated at 37° C., 5% CO2 overnight to allow for cell attachment to the plate.
A quinazoline compound was added to the cells at day 2. The compound was prepared in the appropriate growth medium (10% CS+2 mM glutamine in DMEM for NIH3T3C7 cells; 2% FBS+2 mM Glutamine in DMEM for EGF-RC7 cells) in a 96 well plate, and serially diluted. A total of 100 μl/well medium of the diluted compounds was added into the cells. The total volume of each well was 200 μl.
After the cells were treated with the compound for 4 days, the cells were washed with PBS and fixed with 200 μl/well ice-cold […] for one hour at 0-5° C.
Remove TCA and rinse wells 5 times with deionized water. Dry plates upside down with paper towels. Stain cells with 0.4% SRB at 100 μl/well for 10 minutes.
Pour off SRB and rinse plate 5 times with 1% acetic acid. Dry plate completely.
Solubilize the dye with 10 mM Tris-base at 100 μl/well for 10 minutes on a shaker.
Read the plate at dual wavelengths at 570 nm and 630 nm on Dynatech Elisa plate reader.

in vivo = conditions: mouse, in vivo
[2] = Plasma concentration after single IP dose; format: in vivo; conditions: mouse
Method: **Single dose (50 mg/kg), IP, in BALB/c, nu/nu, female mice.

in vitro = in vitro ADME, human
Method: . […] . Thus, biologically relevant concentrations of the drug penetrated the skin and reached the target tissue (epidermis) within 24 hours of application.
. The area of the cadaver skin used was 1.77 cm^2. The calculated volume using this assumption is 17.7 μL. Molar concentration was calculated from the microgram recovery in the epidermis.

IR = molecular target: T1, IR (Homo sapiens, UniProt P06213); experiment: Insulin-stimulated receptor phosphorylation ELISA, 3T3-IR; format: cell-based
T1 construct: expressed in transfected cells; host or cells: NIH3T3 mouse fibroblasts, retroviral vector (3T3-IR)
T1 sequence (P06213 763-1382 limits assumed): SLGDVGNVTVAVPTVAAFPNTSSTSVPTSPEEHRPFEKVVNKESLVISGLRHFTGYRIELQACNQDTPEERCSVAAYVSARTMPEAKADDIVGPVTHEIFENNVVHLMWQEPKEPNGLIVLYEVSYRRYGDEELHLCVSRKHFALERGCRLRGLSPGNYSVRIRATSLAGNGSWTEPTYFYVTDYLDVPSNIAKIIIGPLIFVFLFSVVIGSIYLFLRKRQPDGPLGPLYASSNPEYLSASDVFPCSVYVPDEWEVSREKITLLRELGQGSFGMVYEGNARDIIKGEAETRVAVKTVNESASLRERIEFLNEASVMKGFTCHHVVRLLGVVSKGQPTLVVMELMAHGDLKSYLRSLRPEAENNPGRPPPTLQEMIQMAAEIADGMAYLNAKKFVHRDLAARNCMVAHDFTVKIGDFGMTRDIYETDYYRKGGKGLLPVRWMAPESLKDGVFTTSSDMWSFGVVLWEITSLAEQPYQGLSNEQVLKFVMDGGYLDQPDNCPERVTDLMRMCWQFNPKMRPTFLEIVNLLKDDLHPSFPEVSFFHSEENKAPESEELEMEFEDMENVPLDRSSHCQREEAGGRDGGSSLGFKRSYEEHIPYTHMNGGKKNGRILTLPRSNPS
T1 sequence (P06213 28-758 partner limits assumed): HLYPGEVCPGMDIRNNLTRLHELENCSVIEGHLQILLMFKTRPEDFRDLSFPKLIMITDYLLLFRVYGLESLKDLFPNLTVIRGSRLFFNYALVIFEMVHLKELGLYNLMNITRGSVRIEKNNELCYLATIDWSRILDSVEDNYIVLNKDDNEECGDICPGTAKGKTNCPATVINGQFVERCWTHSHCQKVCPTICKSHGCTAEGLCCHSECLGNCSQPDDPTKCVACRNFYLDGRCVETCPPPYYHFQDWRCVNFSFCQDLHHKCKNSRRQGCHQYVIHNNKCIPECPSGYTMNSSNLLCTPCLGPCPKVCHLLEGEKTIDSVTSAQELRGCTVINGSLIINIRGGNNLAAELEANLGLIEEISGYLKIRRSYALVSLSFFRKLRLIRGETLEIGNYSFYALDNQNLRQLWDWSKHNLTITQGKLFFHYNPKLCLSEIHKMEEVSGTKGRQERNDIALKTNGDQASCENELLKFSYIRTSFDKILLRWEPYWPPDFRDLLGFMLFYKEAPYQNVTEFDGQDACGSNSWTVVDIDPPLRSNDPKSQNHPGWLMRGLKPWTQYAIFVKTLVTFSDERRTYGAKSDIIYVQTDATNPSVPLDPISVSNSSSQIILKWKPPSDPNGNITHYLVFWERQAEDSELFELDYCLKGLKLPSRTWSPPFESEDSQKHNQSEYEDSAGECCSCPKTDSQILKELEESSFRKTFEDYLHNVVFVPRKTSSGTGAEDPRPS
From the text: (§1) Cells and Cell Culture. All tumor cell lines were obtained from the American Type Culture Collection (Rockville, Md.), unless otherwise specified. NIH3T3 mouse fibroblasts overexpressing the EGF receptor, IGF-1 receptor, insulin receptor, PDGF-b receptor, or a chimera of the EGF receptor extracellular domain fused to the Her-2 cytoplasmic domain were engineered using retroviral vectors. These cells will be referred to as 3T3-EGFR, 3T3-IGF1R, 3T3-IR, 3T3-PDGF-bR, and 3T3-EGFR/Her-2, respectively. All cell culture media and supplements were purchased from Gibco Life Technologies (Grand Island, N.Y.) unless otherwise specified. […] Cell lines were maintained under standard conditions in culture media recommended by the ATCC, unless otherwise specified. 3T3-EGFR, 3T3-PDGF-bR, and 3T3-EGFR/Her-2 cells were maintained in DMEM containing 10% calf serum (CS) and 2 mM GLN. 3T3-IGF1R and 3T3-IR cells were maintained in DMEM containing 10% FBS and 2 mM GLN. Keratinocytes were obtained from small biopsy specimens of split-thicknessskin from patients with psoriasis and from healthy control donors.
In vitro functional studies. […] For analysis of DNA replication (measured as incorporation of BrdU) and cell cycle progression, 3T3-EGFR and 3T3-PDGF-bR cell lines were used. […]
Receptor phosphorylation was measured by ELISA. […]

3T3-EGFR cells [3] = experiment: EGF-driven DNA replication (BrdU incorporation); format: cell-based; conditions: Mus musculus, 20 hours
Method: (§2) In vitro functional studies. […] Cell lines examined in receptor phosphorylation ELISA were 3T3-EGFR, 3T3-EGFR/Her-2, 3T3-PDGF-bR, 3T3-IGF1R, and 3T3-IR. For analysis of DNA replication (measured as incorporation of BrdU) and cell cycle progression, 3T3-EGFR and 3T3-PDGF-bR cell lines were used. Cell growth studies were carried out on A431 (EGF-R+), BT474 (Her-2+), and C6 (PDGF-bR+) cell lines.

3T3-EGFR cells [4] = experiment: EGF-driven cell cycle progression (propidium iodide, FACS); format: cell-based, mouse; conditions: 20 hours
Method: as §2

A431 = experiment: Cell growth (SRB), A431; format: cell-based
Method: as §2
(§3) After 4 days, cell density was measured by SRB staining. IC50 values were determined by regression analysis. For these experiments, cell lines whose growth is dependent on naturally-expressed RTK were examined.

BT474 = experiment: Cell growth (SRB), BT474; format: cell-based; conditions: Homo sapiens, BT-474, 96 h; RTK Her-2, 4 day incubation
Method: (§4) In vitro functional studies.
as §3

C6 = experiment: Cell growth (SRB), C6; format: cell-based
Method: as §4, §3

[5] = tested on: psoriatic human keratinocytes; experiment: Growth of psoriatic human keratinocytes; format: cell-based
From the text: as §1, §2

[6] = Excipient screening (visual solubility after 24 hrs)
[7] = Plasma levels of A1 after topical application in nu/nu mice

## COc1cc2ncnc(Nc3cccc(Br)c3)c2cc1OC [A1, 4-(3-Bromophenylamino)-6,7-dimethoxyquinazoline]
[1]
  IC50: 75 nM
In vivo
  toxicity (in words): low toxicity
[2]; in vivo
  plasma half-life (in words): short plasma half-life
[2]; plasma, single dose 50 mg/kg IP, BALB/c nu/nu female mice, 5 min
  concentration at 5 min: 17900 ± 4300 ng/mL
[2]; plasma, single dose 50 mg/kg IP, BALB/c nu/nu female mice, 15 min
  concentration at […]: 6300 ± 3700 ng/mL
[2]; plasma, single dose 50 mg/kg IP, BALB/c nu/nu female mice, 60 min
  concentration at 1 h: 2000 ± 900 ng/mL
In vitro
  skin penetration (in words): penetrated human cadaver skin, reaching biologically effective concentrations in the epidermis
In vitro; human, topical or ocular, concentration in the epidermis after 24 hours
  concentration at 24 h: 141 to 355 µM
IR; concentrations up to 100 μM
  inhibition of receptor phosphorylation, IR: not inhibited
IR; ligand Insulin, 2 hr pretreatment
  IC50: > 100000 nM
3T3-EGFR cells [3]
  IC50: 30 nM
3T3-EGFR cells [4]
  IC50: 34 nM
A431
  growth of cell lines driven by the EGF-R/Her family of RTK (in words): preferentially inhibited
A431; Homo sapiens, A-431, 96 h
  IC50: 1600 nM
BT474
  IC50: 900 nM
C6
  inhibition of PDGF-bR-dependent cell growth (in words): did not inhibit
C6; Rattus norvegicus, C6, 96 h, RTK PDGF-bR, 4 day incubation
  IC50: > 100000 nM
[5]
  inhibition of psoriatic skin cell / keratinocyte proliferation in vitro (in words): capable of inhibiting
[5]; Homo sapiens, Keratinocyte, 120 h, read-out: IC99, inhibition of psoriatic keratinocyte proliferation
  IC99: ~14 µM
[5]; Homo sapiens, Keratinocyte, read-out: IC50, growth of psoriatic keratinocytes
  IC50: < 1000 nM
[6]; 1.0 N HCl
  Solubility After 24 Hrs.: Insoluble/Yellow
[6]; Benzyl Alcohol
  Solubility After 24 Hrs.: Soluble
[6]; Conc. NaOH
  Solubility After 24 Hrs.: Insoluble
[6]; Distilled H2O
  Solubility After 24 Hrs.: Insoluble
[6]; EtOH/Poly-80 50:50, [Drug] 10 mg/mL
  Solubility After 24 Hrs.: Slightly Soluble
[6]; Ethanol
  Solubility After 24 Hrs.: Partially Soluble
[6]; Isopropyl Myristate
  Solubility After 24 Hrs.: Insoluble/Cloudy
[6]; Oleic Acid
  Solubility After 24 Hrs.: Insoluble/Yellow/Cloudy
[6]; PEG-300
  Solubility After 24 Hrs.: Soluble
[6]; Polysorbate-80, [Drug] 10 mg/mL
  Solubility After 24 Hrs.: Slightly Soluble
[6]; Propylene Carbonate
  Solubility After 24 Hrs.: Soluble/80C/10 min.
[6]; Propylene Glycol
  Solubility After 24 Hrs.: Slightly Soluble/Clear/
[6]; Triacetin
  Solubility After 24 Hrs.: Partially Soluble
[7]; mouse, plasma, topical or ocular
  concentration at 0.5 h: < 2000 ng/mL
[7]; topical 2% ointment, nu/nu mice
  discomfort or increased grooming behavior: no discomfort or increased grooming behavior
